# In patent publication US20170176446A1, “Methods for Determining the Oncogenic Condition of Cell, Uses Thereof, and Methods for Treating Cancer” (INSERM (INSTITUT NATIONAL DE LA SANTE ET DE LA RECHERCHE …, priority 2009, published 2017):
# Legend:
# MCF7 cells = experiment: OCDO production by MCF7 cells incubated with [14C]CE, thin-layer chromatography; assay type: cell-based, human
# In short: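 MCF7 cells incubated with [14C]CE; lipids extracted, separated by silica TLC in ethyl acetate and quantified by phosphorimager densitometry. OCDO inhibition came from oxysterol proportions, OCDO over CEE+CE+CT+OCDO.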
# MDA-MB-231 = experiment: Inhibition of OCDO production by PBPE in MDA-MB-231; assay type: cell-based; conditions: Homo sapiens, 40 μM PBPE, 48 hours
# Protocol: (§1) An analogous experiment was reproduced with different cell lines, with the cells tested being incubated for 48 hours in a 40 μM solution of PBPE. It was noted that the OCDO was 100% inhibited for all the lines in the following table that were tested:
# (§2) Generally, in order to establish the percentages of OCDO inhibition from the thin-layer chromatography (TLC) plates obtained as in assay 2, the radioactive metabolites are identified and quantified on the basis of said plates using a europium-sensitive plate of GP Phosphor screen type (GE Healthcare) and a Storm 840 phosphorimagor (GE Healthcare). The proportion of radiolabeled oxysterols is determined on the autoradiogram obtained by densitometry using the Image Quant 5.2 software. The percentage is calculated on the basis of the ratio between the amount of oxysterols quantified divided by the sum of the amounts of oxysterols (CEE+CE+CT+OCDO). Since the CEE (CE ester) originates exclusively from the CE, the percentage CE is calculated on the basis of the ratio (CE+CEE)/(CE+CEE+CT+OCDO).
# U-937 = experiment: Inhibition of OCDO production by PBPE in U-937; assay type: cell-based; conditions: Homo sapiens, 40 μM PBPE, 48 hours
# Protocol: as §1, §2
# HeLa = experiment: Inhibition of OCDO production by PBPE in HeLa; assay type: cell-based; conditions: Homo sapiens, 40 μM PBPE, 48 hours
# Protocol: as §1, §2
# C6 = experiment: Inhibition of OCDO production by PBPE in C6; assay type: cell-based; conditions: Rattus norvegicus, 40 μM PBPE, 48 hours
# Protocol: as §1, §2
# TT = experiment: Inhibition of OCDO production by PBPE in TT; assay type: cell-based; conditions: Homo sapiens, 48 h, read-out: Inhibition of OCDO production
# Protocol: as §1, §2
# [1] = MCF7 cells, [14C]CEα, three days, concentration given with each compound, share of labeled oxysterols
smiles,measurement,setting,value
"c1ccc(Cc2ccc(OCCN3CCCC3)cc2)cc1 [PBPE, N,N-pyrrolidino-[(4-benzyl)phenoxy]ethanamine]",inhibition at 40 µM,"MCF7 cells; Homo sapiens, MCF7, MCF-7, 40 μM PBPE, 48 hours",100%
same,% CE,MCF7 cells; [1],89.2%
same,% CT,MCF7 cells; [1],4.6%
same,% OCDO,MCF7 cells; [1],6.2%
same,OCDO production by MCF-7 (% control),"MCF7 cells; concentration in μM in parentheses after each molecule, control = 100",<1 % control
same,inhibition at 40 µM,MDA-MB-231,100%
same,inhibition at 40 µM,U-937,100%
same,inhibition at 40 µM,HeLa,100%
same,inhibition at 40 µM,C6,100%
same,inhibition at 40 µM,TT,100%
